The NIST ThermoML archive (doi:10.1021/je034062r)
± gives the expanded uncertainty stated by the source.

Experiments:
[1] = 101.3 kPa, Liquid mixture 1
[2] = xn = mol fraction of the nth substance listed; conditions: for mass density: Liquid; for surface tension liquid-gas: Pendant drop shape

CCCCCCCCCC [decane] + CN(C)C=O
[1]
Conditions	interfacial tension [mN/m]
292.78 K	3.78 ± 0.38
297.77 K	3.41 ± 0.34
302.79 K	3.1 ± 0.31
307.81 K	2.72 ± 0.27
312.79 K	2.4 ± 0.24
317.8 K	2.09 ± 0.21
322.78 K	1.82 ± 0.18
327.81 K	1.53 ± 0.15
332.81 K	1.24 ± 0.12
337.76 K	0.95 ± 0.095
342.78 K	0.69 ± 0.069
346.8 K	0.48 ± 0.048
348.32 K	0.37 ± 0.037
350.11 K	0.32 ± 0.032
352.77 K	0.19 ± 0.019
353.65 K	0.15 ± 0.016
354.76 K	0.105 ± 0.016
355.31 K	0.083 ± 0.016
355.62 K	0.07 ± 0.016
356.15 K	0.056 ± 0.016
356.72 K	0.035 ± 0.016
357.15 K	0.019 ± 0.016
357.45 K	0.012 ± 0.016

Cc1ccccc1 [toluene] + CC(C)=O
[2], x1 = 1
Conditions	mass density [kg/m3]	surface tension liquid-gas [mN/m]
283.15 K	875.9 ± 1.3	–
287.81 K	–	28.93 ± 0.31
288.15 K	871.4 ± 1.3	–
293.15 K	866.9 ± 1.3	–
297.82 K	–	27.76 ± 0.3
298.15 K	862.4 ± 1.4	–
303.15 K	857.8 ± 1.4	–
307.86 K	–	26.6 ± 0.29
308.15 K	853.2 ± 1.4	–
313.15 K	848.6 ± 1.5	–
317.86 K	–	25.46 ± 0.28
318.15 K	843.9 ± 1.5	–
323.15 K	839.2 ± 1.5	–
327.88 K	–	24.29 ± 0.27
328.15 K	834.5 ± 1.5	–
333.15 K	829.8 ± 1.6	–

CC(C)=O [acetone] + C1CCCCC1
[2]
Conditions	mass density, 288.15 K [kg/m3]	mass density, 298.15 K [kg/m3]	mass density, 308.15 K [kg/m3]	mass density, 318.15 K [kg/m3]	surface tension liquid-gas, 287.81 K [mN/m]	surface tension liquid-gas, 297.82 K [mN/m]	surface tension liquid-gas, 307.86 K [mN/m]	surface tension liquid-gas, 317.86 K [mN/m]
x2 = 0	798.2 ± 0.9	787 ± 0.9	775.4 ± 1	762.5 ± 1	23.94	22.78	21.59	20.33
x2 = 0.1002	790 ± 1.1	779.7 ± 1.1	768.4 ± 1.1	756.9 ± 1.1	23.54	22.25	21.03	19.91
x2 = 0.2001	786.6 ± 1	775.3 ± 1	764.2 ± 1.1	753 ± 1.1	23.19	22.02	20.78	19.63
x2 = 0.2993	783.2 ± 1	772.3 ± 1	761.4 ± 1	750.2 ± 1.1	23.23	22.02	20.82	19.63
x2 = 0.3979	781.1 ± 1	769.7 ± 1	759.6 ± 1	748.6 ± 1.1	23.33	22.08	20.89	19.7
x2 = 0.4964	779.7 ± 1	769.2 ± 1	758.6 ± 1	747.8 ± 1	23.58	22.22	21.14	20
x2 = 0.6	778.9 ± 1	768.6 ± 1	758.2 ± 1	747.6 ± 1	23.91	22.53	21.35	20.3
x2 = 0.6975	778.9 ± 1	768.7 ± 1	759.9 ± 1	748.3 ± 1.1	24.31	22.84	21.6	20.56
x2 = 0.7993	779.4 ± 1	769.5 ± 1	759.6 ± 1	749.6 ± 1.1	24.69	23.24	22.08	21.04
x2 = 0.8994	780.7 ± 1	771.1 ± 1	761.4 ± 1	751.6 ± 1.1	25.12	23.82	22.58	21.46

C1CCCCC1 [cyclohexane] + CC(C)=O
[2], x1 = 1
Conditions	mass density [kg/m3]	surface tension liquid-gas [mN/m]
287.81 K	–	25.34
288.15 K	783.2 ± 0.9	–
297.82 K	–	24.2
298.15 K	773.9 ± 1	–
307.86 K	–	23.02
308.15 K	764.4 ± 1	–
317.86 K	–	21.84
318.15 K	754.8 ± 1	–

CN(C)C=O [dimethylformamide] + CCCCCCC
[1]
Conditions	interfacial tension [mN/m]
297.83 K	2.49 ± 0.12
302.83 K	2.19 ± 0.11
307.85 K	1.87 ± 0.09
312.85 K	1.59 ± 0.08
317.86 K	1.26 ± 0.06
322.86 K	0.93 ± 0.047
327.88 K	0.66 ± 0.033
332.88 K	0.42 ± 0.021
334.87 K	0.302 ± 0.016
336.86 K	0.213 ± 0.016
337.88 K	0.169 ± 0.016
338.88 K	0.122 ± 0.016
339.87 K	0.086 ± 0.016
340.87 K	0.042 ± 0.016
341.25 K	0.032 ± 0.016
341.88 K	0.02 ± 0.016
342.18 K	0.011 ± 0.016

CN1CCCC1=O [N-methylpyrrolidone] + CCCCCCC
[1]
Conditions	interfacial tension [mN/m]
297.76 K	1.202 ± 0.12
302.78 K	0.93 ± 0.093
307.81 K	0.68 ± 0.068
312.84 K	0.45 ± 0.045
317.79 K	0.24 ± 0.024
320.65 K	0.137 ± 0.016
322.8 K	0.079 ± 0.016
323.75 K	0.055 ± 0.016
324.8 K	0.033 ± 0.016
325.43 K	0.019 ± 0.016
325.81 K	0.012 ± 0.016
326.1 K	0.009 ± 0.016

CCCCCCC [heptane] + C1CCCCC1
[2], x2 = 0
Conditions	mass density [kg/m3]	surface tension liquid-gas [mN/m]
283.15 K	692.2 ± 0.7	–
287.81 K	–	20.7 ± 0.26
288.15 K	688 ± 0.7	–
293.15 K	683.8 ± 0.7	–
297.82 K	–	19.63 ± 0.25
298.15 K	679.5 ± 0.7	–
303.15 K	675.2 ± 0.7	–
307.86 K	–	18.68 ± 0.24
308.15 K	670.9 ± 0.7	–
313.15 K	666.5 ± 0.7	–
317.86 K	–	17.76 ± 0.24
318.15 K	662.1 ± 0.7	–
323.15 K	657.7 ± 0.7	–
327.88 K	–	16.68 ± 0.23
328.15 K	653.2 ± 0.7	–
333.15 K	648.7 ± 0.7	–
